Data taken from patent US8821861B2, “Fibrin sealant” (The Board of Trustees of the University of Illinois, priority 2007, dated 2014).
“Also recorded” adds a separate entry of the source.

Key:
[1] = biological target: T1, fibrin clots formed from purified human fibrinogen and human α thrombin (Homo sapiens, UniProt P02671+P02675+P02679); assay: Fibrin clot turbidity (A405), purified fibrinogen clotted with thrombin in microplates; assay type: biochemical; settings: for polyP concentration exerting maximal effect on turbidity: 2.6 mg/mL citrate-free fibrinogen, 1 nM thrombin (FIG. 8)
T1 construct: purchased Enzyme Research Laboratories (South Bend, Ind.)
T1 sequence (P02671 20-644 isoform P02671-2 limits assumed): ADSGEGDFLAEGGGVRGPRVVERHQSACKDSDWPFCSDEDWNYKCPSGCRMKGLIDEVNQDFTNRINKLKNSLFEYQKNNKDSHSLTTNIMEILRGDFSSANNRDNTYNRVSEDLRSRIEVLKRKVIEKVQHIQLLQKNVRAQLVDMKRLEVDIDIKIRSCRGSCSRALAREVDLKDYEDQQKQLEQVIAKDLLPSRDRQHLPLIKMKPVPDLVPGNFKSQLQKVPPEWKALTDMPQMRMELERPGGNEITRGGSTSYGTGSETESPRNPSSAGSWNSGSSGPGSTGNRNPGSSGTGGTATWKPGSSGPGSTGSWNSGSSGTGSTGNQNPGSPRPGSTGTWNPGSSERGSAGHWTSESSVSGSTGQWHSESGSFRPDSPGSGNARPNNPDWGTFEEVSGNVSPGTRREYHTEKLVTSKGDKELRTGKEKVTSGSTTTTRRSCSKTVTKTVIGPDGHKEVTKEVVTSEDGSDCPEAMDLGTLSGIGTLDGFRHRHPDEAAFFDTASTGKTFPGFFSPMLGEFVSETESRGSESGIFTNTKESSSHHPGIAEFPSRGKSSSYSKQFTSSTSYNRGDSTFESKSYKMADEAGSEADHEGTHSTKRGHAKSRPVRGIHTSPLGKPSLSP
T1 sequence (P02675 31-491): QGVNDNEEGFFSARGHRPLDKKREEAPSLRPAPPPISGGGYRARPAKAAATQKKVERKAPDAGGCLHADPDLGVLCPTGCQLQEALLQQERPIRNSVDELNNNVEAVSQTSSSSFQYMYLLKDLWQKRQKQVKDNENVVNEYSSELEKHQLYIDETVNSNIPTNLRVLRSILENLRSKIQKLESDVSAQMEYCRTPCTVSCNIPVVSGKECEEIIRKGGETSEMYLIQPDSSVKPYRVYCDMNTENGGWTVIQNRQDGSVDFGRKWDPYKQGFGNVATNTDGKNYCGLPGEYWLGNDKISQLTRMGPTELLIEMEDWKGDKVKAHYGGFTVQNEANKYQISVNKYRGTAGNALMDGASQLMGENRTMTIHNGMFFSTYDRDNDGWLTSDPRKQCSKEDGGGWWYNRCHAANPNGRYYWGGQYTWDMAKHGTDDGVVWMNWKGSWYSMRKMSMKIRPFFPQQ
T1 sequence (P02679 27-437 isoform P02679-2 limits assumed): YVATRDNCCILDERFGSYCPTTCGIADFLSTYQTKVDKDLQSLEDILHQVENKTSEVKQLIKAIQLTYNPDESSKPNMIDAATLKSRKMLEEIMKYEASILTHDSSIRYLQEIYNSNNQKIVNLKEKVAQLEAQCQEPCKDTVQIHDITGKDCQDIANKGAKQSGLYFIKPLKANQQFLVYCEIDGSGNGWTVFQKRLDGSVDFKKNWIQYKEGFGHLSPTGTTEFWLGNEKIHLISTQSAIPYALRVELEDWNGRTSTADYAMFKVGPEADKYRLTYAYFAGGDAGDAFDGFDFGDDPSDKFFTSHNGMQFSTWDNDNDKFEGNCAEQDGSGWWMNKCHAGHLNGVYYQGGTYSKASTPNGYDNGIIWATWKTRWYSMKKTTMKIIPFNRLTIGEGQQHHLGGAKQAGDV
Protocol: The in vitro studies reported here utilize a microplate-based method to evaluate the formation of fibrin clots, which are prepared by mixing together purified fibrinogen and thrombin. Once fibrinogen is cleaved to fibrin, the fibrin monomers spontaneously polymerize to yield a three-dimensional gel, or clot. These fibrin polymers scatter visible light, resulting in increased turbidity which can monitored spectrophotometrically to detect clotting.
Fibrin clots were formed in 96-well polystyrene microplates (Corning Inc., Corning, N.Y.) by first preincubating fibrinogen with polyP in TBS plus the indicated CaCl2 concentrations. (Preincubations of fibrinogen with calcium ions were for 15 minutes unless otherwise stated.) Thrombin in TBS plus the same concentration of CaCl2 was then added to trigger clot formation. Reactant concentrations were typically 2.6 mg/mL fibrinogen, 62.5 pM to 8 nM thrombin, 0 to 8 mM polyP, and 0 to 5 mM CaCl2 in a total volume of 200 μL. In some studies, 0 to 10 U/mL unfractionated heparin or 1 mM iodoacetamide were also included. Clotting was evaluated by monitoring the change in turbidity (A405) for varying times (typically, 1 hour) at room temperature using a Spectramax microplate reader (Molecular Devices Corporation, Sunnyvale, Calif.). […] Final turbidities (A405) of fibrin clots were typically quantified after the clots had matured for 60 minutes.

fibrin fibrils [2] = biological target: T2, fibrin fibrils (Homo sapiens, UniProt P02671+P02675+P02679); assay: Fibril size determination (relative mass-length ratio from wavelength scan); assay type: biochemical; settings: 1 mM polyP; 2.6 mg/mL fibrinogen, 3 nM thrombin, 2.5 mM calcium ions
T2 construct: purchased Enzyme Research Laboratories (South Bend, Ind.)
T2 sequence (P02671 20-644 isoform P02671-2 limits assumed): T1 sequence (P02671 20-644 isoform P02671-2 limits assumed)
T2 sequence (P02675 31-491): T1 sequence (P02675 31-491)
T2 sequence (P02679 27-437 isoform P02679-2 limits assumed): T1 sequence (P02679 27-437 isoform P02679-2 limits assumed)
Description: Previous studies of fibrin clot structure have shown that the final optical density of fibrin clots is primarily a function of the thickness of the fibrils formed. It is possible to estimate the mass-length ratios of fibrin fibrils by measuring the optical density of clots at a series of wavelengths of light, using a suitable mathematical analysis of the data. Such analyses of fibrin clots were made by mixing fibrinogen and thrombin in the presence of calcium ions and varying concentrations of polyP, in order to determine the effect of polyP on the mass-length ratio of the fibrils (FIG. 5(A)). […] When fibrin clots formed in the presence of calcium ions and varying polyP concentrations were visualized using scanning electron microscopy, the fibrin fibrils had increased thickness as the polyP concentration increased (FIGS. 5(C-E)).
Relative fibril mass to length ratios were determined using a modification of the method of Carr and Gabriel for clots with high turbidity. Briefly, fibrin clots were allowed to mature for 2 hours after thrombin addition, after which the absorbance was scanned from 400 to 800 nm on a Spectramax microplate reader. A plot of 1/τ*λ^3(y axis) versus 1/λ^2 (x axis) was used to determine the y intercept, the inverse of which is proportional to the mass-length ratio of the fibers. […]

fibrin fibrils [3] = biological target: T2, fibrin fibrils; assay: Scanning electron microscopy of fibrin clots (fibril thickness); assay type: biochemical; settings: 2.6 mg/mL fibrinogen, 2.5 mM CaCl2, 3 nM thrombin, without polyP 26.5±0.7 nm
Protocol: Fibrin clots formed as described above for turbidity measurements were allowed to mature for 2 hours after thrombin addition. Clots were washed 4 times in 0.1 M cacodylate, fixed in Karnovsky's gluteraldehyde solution overnight, and then processed by stepwise ethanol gradient, critical point drying, and sputter coating with gold palladium. Clots were observed and photographed in six different representative areas using a scanning electron microscope.

[4] = biological target: T3, fibrin clots / human plasmin (Homo sapiens, UniProt P02671+P02675+P02679); assay: Fibrinolysis of fibrin clots by plasmin; assay type: biochemical; settings: 1 mM polyP, 1 mg/mL fibrinogen, 2.5 mM CaCl2, 8 nM plasmin, 1 nM thrombin; clots without polyP lysed quickly
T3 construct: purchased Enzyme Research Laboratories (South Bend, Ind.)
T3 sequence (P02671 20-644 isoform P02671-2 limits assumed): T1 sequence (P02671 20-644 isoform P02671-2 limits assumed)
T3 sequence (P02675 31-491): T1 sequence (P02675 31-491)
T3 sequence (P02679 27-437 isoform P02679-2 limits assumed): T1 sequence (P02679 27-437 isoform P02679-2 limits assumed)
Protocol: FIG. 6 is a graph of the time course of fibrinolysis of fibrin clots. Fibrinogen (1 mg/mL) was preincubated for 15 minutes in the presence of 2.5 mM CaCl2 with 1 mM polyP (▾) or without polyP (O), after which 8 nM plasmin was added followed immediately by 1 nM thrombin. Fibrin clots were allowed to form for 30 minutes, after which their turbidities were measured. The data are plotted as A405 values normalized to the initial A405 value for each curve.
In these experiments, clots were formed by mixing purified human fibrinogen, human plasmin, and human thrombin in the presence of calcium ions, with or without polyP. Clot lysis was quantified by measuring the decrease in optical density over time (following a 30 minute initial clot formation). […] (FIG. 6)

[5] = biological target: T4, fibrin cross-linking by factor XIIIa (Homo sapiens, UniProt P02671+P02675+P02679); assay: Fibrin cross-link formation (SDS-PAGE); assay type: biochemical; settings: 37° C., data not shown
T4 construct: changing the rate or extent of fibrin cross-linking by factor XIIIa; purchased Enzyme Research Laboratories (South Bend, Ind.)
T4 sequence (P02671 20-644 isoform P02671-2 limits assumed): T1 sequence (P02671 20-644 isoform P02671-2 limits assumed)
T4 sequence (P02675 31-491): T1 sequence (P02675 31-491)
T4 sequence (P02679 27-437 isoform P02679-2 limits assumed): T1 sequence (P02679 27-437 isoform P02679-2 limits assumed)
Protocol: Rates of a and y cross-link formation were studied in clotting reactions carried out as described for turbidity measurements using purified fibrinogen, except that fibrin clots were formed in polypropylene tubes at 37° C. and reactions were stopped at various times by adding an equal volume of 2×SDS sample buffer (100 mM Tris-HCl, 1 mM dithiothreitol, 4% sodium dodecyl sulfate (SDS), 0.02% bromophenol blue, 20% glycerol, pH 6.8) with immediate boiling at 95° C. for 5 minutes. Samples (10 μL) were then subjected to SDS-PAGE using 7.5% polyacrylamide gels and stained with Gelcode (Pierce, Rockford, Ill.) according to the manufacturer's directions.

spleen surface wounds = assay: Porcine splenic trauma model of surgical bleeding; assay type: in vivo, pig
Protocol: In preliminary experiments, the ability of polyP to enhance the performance of a fibrin sealant composed of purified fibrinogen and thrombin was evaluated. The fibrinogen component of the experimental fibrin sealant was pre-mixed with calcium ions and polyP, while control fibrinogen preparations were pre-mixed with calcium ions without polyP. Shallow surface wounds were then made on the surface of the spleen of anesthetized pigs, after which 0.3 mL each of the fibrinogen and thrombin solutions were applied to the wound surface and allowed to react with each other. Including polyP in the fibrinogen solution shortened the time to cessation of bleeding in this model: 9.8±1.0 minutes with polyP, but 12.3±1.0 minutes without polyP (mean±SEM). Adding polyP to the fibrinogen solution also changed the appearance of fibrin clots formed on the wound surfaces.
Young adult pigs weighing 20-35 kg were anesthetized using intramuscular teletamine/zolazepam/glycopyrolate, followed by intubation and maintenance with inhaled isoflurane. A ventral midline laparotomy was performed and the spleen was externalized. Shallow (approximately 1 mm deep) oval surface wounds measuring approximately 3×5 mm were made using a Metzenbaum scissors. […] Time to cessation of bleeding was assessed visually. […]

human plasma = settings: previous studies [20]; cited from earlier work
[6] = biological target: T1, fibrin clots formed from purified human fibrinogen and human α thrombin; assay: Fibrin clot turbidity (A405), purified fibrinogen clotted with thrombin in microplates; assay type: biochemical; settings: up to 20 U/mL unfractionated heparin, 500 μM polyP

NC(=O)CI [iodoacetamide, reference compound]
effect of iodoacetamide on the enhancement of final clot turbidity by polyP ([1]; transglutaminase inhibitor added to clotting mixtures, data not shown): failed to antagonize the enhancement of final clot turbidity by polyP

Polyphosphate
polyP concentration exerting maximal effect on turbidity ([1]; 2 mM Ca2+): 1 mM
polyP concentration exerting maximal effect on turbidity ([1]; 2.5 mM Ca2+): 1 to 2 mM
polyP concentration exerting maximal effect on turbidity ([1]; 3 mM Ca2+): 2 to 4 mM
polyP concentration exerting maximal effect on turbidity ([1]; 5 mM Ca2+): 3 to 8 mM
polyP concentration giving optimal enhancement of final clot turbidity ([1]; expressed as phosphate monomer, 2.6 mg/mL fibrinogen, 8 nM thrombin, 2.5 mM calcium chloride (FIG. 3)): approximately 1 mM
effect on turbidity of fibrin clots ([1]; in the absence of Ca2+): did not increase the turbidity of fibrin clots
effect on final clot turbidity ([1]; mM Ca2+ present, regardless of the amount of thrombin added): markedly increased final clot turbidity
effect on fibrin clot turbidity with added factor XIIIa ([1]; preactivated factor XIIIa added to the clotting mixtures, data not shown): still increased fibrin clot turbidity
effect on thrombin clotting time ([1]; purified fibrinogen plus thrombin): lack of effect
enhancement of final clot turbidity with factor XIIIa inhibitor ([1]; with or without 1 mM iodoacetamide, data not shown): approximately equally well in the presence or absence of iodoacetamide
mass-length ratio of fibrin fibrils compared to clots formed in the absence of polyP (fibrin fibrils [2]): more than three times larger
mean fibril thickness (±standard error) (fibrin fibrils [3]; 100 μM polyP): 33.6±1.0 nm
mean fibril thickness (±standard error) (fibrin fibrils [3]; 500 μM polyP): 54.2±1.3 nm
mean fibril thickness (±standard error) (fibrin fibrils [3]; 1 mM polyP): 73.4±1.5 nm
resistance of clots to fibrinolysis [4]: highly resistant to lysis by plasmin
rate of formation of cross-linked fibrin chains [5]: appeared to be the same with or without polyP; also recorded: failed to identify any impact of polyP
time to cessation of bleeding (mean±SEM) (spleen surface wounds; fibrin sealant, polyP in the fibrinogen solution, 0.3 mL each of fibrinogen and thrombin solutions on spleen wound, without polyP 12.3±1.0 minutes): 9.8 ± 1.0 min
appearance of fibrin seals formed on the wound surfaces (spleen surface wounds; fibrinogen with polyP versus without polyP (FIG. 7)): more opaque
effect on clotting time of human plasma (human plasma): shortens the clotting time of human plasma
effect on clotting time when thrombin was added to plasma (human plasma): did not shorten clotting times

heparin [reference compound]
magnitude of the turbidity increase relative to polyP ([1]; heparin 0 to 10 units/mL, data not shown): markedly lower than that observed with polyP
effect on fibrin turbidity ([1]; heparin examined from 0 to 10 units/mL, data not shown): increased fibrin turbidity in a dose-dependent fashion
effect of added heparin on the polyP effect on turbidity [6]: did not reduce the effect of polyP on turbidity
